Assays:
[1] = Crystal form stability study (influencing factor experiments); assay type: physicochemical; conditions: for Physical and chemical properties (conclusion of influencing factor experiments): high temperatures and high humidities for 30 days
Procedure: Samples of the crystal forms A, B, C, I, J, and K of the compound represented by formula (I) were taken, spread in open containers, and left to stand under conditions of light exposure (4500 Lux), high temperatures (40° C. and 60° C.), and high humidities (RH 75% and RH 92.5%) for 30 days to investigate their stability, and the results are shown in Table 16.

[2] = Long-term/accelerated stability; assay type: physicochemical
[3] = 40° C., 10 days, open container
[4] = 40° C., 30 days, open container
[5] = 60° C., 10 days, open container
[6] = 60° C., 30 days, open container
[7] = 75% RH, 10 days, open container
[8] = 75% RH, 30 days, open container
[9] = 92.5% RH, 5 days, open container
[10] = 92.5% RH, 10 days, open container
[11] = 92.5% RH, 30 days, open container
[12] = light exposure (4500 Lux), 5 days, open container
[13] = light exposure (4500 Lux), 10 days, open container
[14] = light exposure (4500 Lux), 30 days, open container

SMILES: CCc1c(F)ccc2cc(O)cc(-c3nc4c5c(nc(OC[C@@]67CCCN6C[C@H](F)C7)nc5c3F)N3C[C@H]5CC[C@H](N5)[C@H]3CO4)c12 [Crystal form A, 5-Ethyl-6-fluoro-4-((5aS,6S,9R)-1-fluoro-12-(((2R,7aS)-2-fluorotetrahydro-1H-pyrrolizin-7a(5H)-yl)methoxy)-5a,6,7,8,9,10-hexahydro-5H-4-oxa-3,10a,11,13,14-pentaaza-6,9-methanonaphtho[1,8-ab]heptalen-2-yl)naphthalen-2-ol]
- Color and state ([1]; 40° C., 5 days, open container): Off-white solid
- Crystal form ([1]; 40° C., 5 days, open container): Did not change
- Purity % ([1]; 40° C., 5 days, open container): 99.2%
- Color and state [1, 3]: Off-white solid
- Crystal form [1, 3]: Did not change
- Purity % [1, 3]: 99.2%
- Color and state [1, 4]: Off-white solid
- Crystal form [1, 4]: Did not change
- Purity % [1, 4]: 99.1%
- Color and state ([1]; 60° C., 5 days, open container): Off-white solid
- Crystal form ([1]; 60° C., 5 days, open container): Did not change
- Purity % ([1]; 60° C., 5 days, open container): 99.1%
- Color and state [1, 5]: Off-white solid
- Crystal form [1, 5]: Did not change
- Purity % [1, 5]: 99.0%
- Color and state [1, 6]: Off-white solid
- Crystal form [1, 6]: Did not change
- Purity % [1, 6]: 98.5%
- Color and state ([1]; 75% RH, 5 days, open container): Off-white solid
- Crystal form ([1]; 75% RH, 5 days, open container): Did not change
- Purity % ([1]; 75% RH, 5 days, open container): 99.3%
- Color and state [1, 7]: Off-white solid
- Crystal form [1, 7]: Did not change
- Purity % [1, 7]: 99.3%
- Color and state [1, 8]: Off-white solid
- Crystal form [1, 8]: Did not change
- Purity % [1, 8]: 99.3%
- Color and state [1, 9]: Off-white solid
- Crystal form [1, 9]: Did not change
- Purity % [1, 9]: 99.3%
- Color and state [1, 10]: Off-white solid
- Crystal form [1, 10]: Did not change
- Purity % [1, 10]: 99.4%
- Color and state [1, 11]: Off-white solid
- Crystal form [1, 11]: Did not change
- Purity % [1, 11]: 99.3%
- Color and state ([1]; Initial, 0 days): Off-white solid
- Purity % ([1]; Initial, 0 days): 99.3%
- Physical and chemical properties (conclusion of influencing factor experiments) [1]: good physical and chemical properties
- Color and state [1, 12]: Off-white solid
- Crystal form [1, 12]: Did not change
- Purity % [1, 12]: 98.7%
- Color and state [1, 13]: Off-white solid
- Crystal form [1, 13]: Did not change
- Purity % [1, 13]: 98.5%
- Color and state [1, 14]: Pale yellow solid
- Crystal form [1, 14]: Did not change
- Purity % [1, 14]: 95.8%
- Purity % 1 month ([2]; 25° C./60% RH): 99.3%
- Purity % 3 months ([2]; 25° C./60% RH): 99.3%
- Purity % 6 months ([2]; 25° C./60% RH): 99.3%
- Purity % Initial ([2]; 25° C./60% RH): 99.3%
- Purity % 1 month ([2]; 40° C./75% RH): 99.3%
- Purity % 3 months ([2]; 40° C./75% RH): 99.2%
- Purity % 6 months ([2]; 40° C./75% RH): 99.1%
- Purity % Initial ([2]; 40° C./75% RH): 99.3%

SMILES: CCc1c(F)ccc2cc(O)cc(-c3nc4c5c(nc(OC[C@@]67CCCN6C[C@H](F)C7)nc5c3F)N3C[C@H]5CC[C@H](N5)[C@H]3CO4)c12 [Crystal form B, 5-Ethyl-6-fluoro-4-((5aS,6S,9R)-1-fluoro-12-(((2R,7aS)-2-fluorotetrahydro-1H-pyrrolizin-7a(5H)-yl)methoxy)-5a,6,7,8,9,10-hexahydro-5H-4-oxa-3,10a,11,13,14-pentaaza-6,9-methanonaphtho[1,8-ab]heptalen-2-yl)naphthalen-2-ol]
- Color and state ([1]; 40° C., 5 days, open container): Off-white solid
- Crystal form ([1]; 40° C., 5 days, open container): Did not change
- Purity % ([1]; 40° C., 5 days, open container): 99.3%
- Color and state [1, 3]: Off-white solid
- Crystal form [1, 3]: Did not change
- Purity % [1, 3]: 99.3%
- Color and state [1, 4]: Off-white solid
- Crystal form [1, 4]: Did not change
- Purity % [1, 4]: 99.2%
- Color and state ([1]; 60° C., 5 days, open container): Off-white solid
- Crystal form ([1]; 60° C., 5 days, open container): Did not change
- Purity % ([1]; 60° C., 5 days, open container): 99.3%
- Color and state [1, 5]: Off-white solid
- Crystal form [1, 5]: Did not change
- Purity % [1, 5]: 99.2%
- Color and state [1, 6]: Off-white solid
- Crystal form [1, 6]: Did not change
- Purity % [1, 6]: 99.1%
- Color and state ([1]; 75% RH, 5 days, open container): Off-white solid
- Crystal form ([1]; 75% RH, 5 days, open container): Did not change
- Purity % ([1]; 75% RH, 5 days, open container): 99.3%
- Color and state [1, 7]: Off-white solid
- Crystal form [1, 7]: Did not change
- Purity % [1, 7]: 99.4%
- Color and state [1, 8]: Off-white solid
- Crystal form [1, 8]: Did not change
- Purity % [1, 8]: 99.3%
- Color and state [1, 9]: Off-white solid
- Crystal form [1, 9]: Did not change
- Purity % [1, 9]: 99.4%
- Color and state [1, 10]: Off-white solid
- Crystal form [1, 10]: Did not change
- Purity % [1, 10]: 99.4%
- Color and state [1, 11]: Off-white solid
- Crystal form [1, 11]: Did not change
- Purity % [1, 11]: 99.4%
- Color and state ([1]; Initial, 0 days): Off-white solid
- Purity % ([1]; Initial, 0 days): 99.4%
- Physical and chemical properties (conclusion of influencing factor experiments) [1]: good physical and chemical properties
- Color and state [1, 12]: Off-white solid
- Crystal form [1, 12]: Did not change
- Purity % [1, 12]: 99.0%
- Color and state [1, 13]: Off-white solid
- Crystal form [1, 13]: Did not change
- Purity % [1, 13]: 99.1%
- Color and state [1, 14]: Pale yellow solid
- Crystal form [1, 14]: Did not change
- Purity % [1, 14]: 97.6%
- Purity % 1 month ([2]; 25° C./60% RH): 99.4%
- Purity % 3 months ([2]; 25° C./60% RH): 99.3%
- Purity % 6 months ([2]; 25° C./60% RH): 99.3%
- Purity % Initial ([2]; 25° C./60% RH): 99.4%
- Purity % 1 month ([2]; 40° C./75% RH): 99.3%
- Purity % 3 months ([2]; 40° C./75% RH): 99.2%
- Purity % 6 months ([2]; 40° C./75% RH): 99.1%
- Purity % Initial ([2]; 40° C./75% RH): 99.4%

Source: US20260209250A1, “CRYSTAL FORM OF KRAS G12D INHIBITOR AND PREPARATION METHOD THEREFOR” (priority 2022, published 2026)
